Patent US20110150914A1, “COMPOSITIONS AND METHODS FOR DENGUE VIRUS (DV) TREATMENT AND VACCINATION” (priority 2008, published 2011)
Ends that are not written are not given here.

How the values were obtained:
CD8^+ T cells [1] = experiment: Intracellular cytokine staining (IFN-γ), splenocytes of S221-infected IFN-α/βR^−/− mice; type: cell-based; settings: day 7 after 10^10 GE S221
Procedure: (§1) All Ab were purchased from eBioscience with the exception of anti-CD8α-PerCP and anti-CD107a-FITC which were obtained from BD Biosciences. RBC in blood were lysed using RBC lysis buffer (eBioscience). For surface staining, splenocytes or blood cells were washed, incubated with supernatant from 2.4G2-producing hybridoma cells to block Fc receptors, and labeled with anti-CD8α-PerCP, anti-CD44-APC, and anti-CD62L-PE. For intracellular cytokine staining, 10^6 splenocytes or 10^5 blood cells were plated in 96-well U-bottom plates and stimulated with individual DENV peptides (0.1 μg/ml) in the presence of brefeldin A (GolgiPlug, BD Biosciences) for 5 h. For CD107a staining, CD107a-FITC (or rat IgG2a-FITC) was added to the wells at the same time as the peptide. Cells were washed, incubated with 2.4G2 supernatant, labeled with anti-CD8α-PerCP, fixed and permeabilized using the BD Cytofix/Cytoperm Kit, and stained with anti-IFN-γ-APC and anti-TNF-α-PE. Samples were read on a FACS Caliber (BD Biosciences) and analyzed using FloJo software (Tree Star, Inc.)
The S221-specific CD8^+ T cell response in the IFN-α/βR^−/− mice was studied. […]
The S221-specific CD8^+ T cell response in IFN-α/βR^−/− mice was further studied. […] Referring to FIGS. 5C, 5E and 5F, the number of splenic CD8^+ T cells in naïve (n=4) and infected (n=7) mice was measured (results described above). […] The data are expressed as the percent±SEM of seven mice tested in three independent experiments.
The initial epitope identification studies were performed in wild-type mice. […] Cells were then stained for surface CD8 and intracellular IFN-γ and analyzed by flow cytometry. […] Results are expressed as the mean±SEM of 13 wild-type and 7 IFN-α/βR^−/− mice were tested in at least three independent experiments. Referring FIGS. 8C and D, the figures show kinetics of the DENV-specific CD8^+ T cell response as determined by the study. […]

CD8^+ T cells [2] = experiment: IFN-γ ELISPOT with CD8^+ T cells of DENV2-infected C57BL/6 mice; type: cell-based; settings: PL046 or S221 infected C57BL/6 mice
CD8^+ T cells [3] = experiment: Intracellular cytokine staining (IFN-γ), splenocytes of S221-infected wild-type mice; type: cell-based, C57BL/6 mice
Procedure: as §1
To confirm that the IFN-γ response to the MHC class I-binding DENV peptides was mediated by CD8^+ T cells, intracellular cytokine staining (ICS) on CD8^+ T cells isolated from S221-infected wild-type mice was performed. Splenocytes were harvested from C57BL/6 mice 7 days after infection with 10^11 genomic equivlalents (GE) S221 and were re-stimulated in vitro with individual DENV2 peptides or an irrelevant peptide (irr) at 0.1 μg/ml in the presence of brefeldin A for 5 h. Cells were then stained for surface CD8 and intracellular IFN-γ and analyzed by flow cytometry. […] The percent of CD8^+ T cells producing IFN-γ is indicated. Referring to FIG. 2B, the figure is a summary of the DENV2-specific CD8^+ IFN-γ^+ response. The response to the irrelevant control peptide was subtracted from the responses to each DENV2 peptide. Each symbol represents one mouse and the bar represents the geometric mean. The identification of the 12 positive peptides for S221 was confirmed by the intracellular cytokine staining (ICS) (FIG. 2A), and the response to the 8 most dominant peptides was determined (FIG. 2B). The responses ranged from 0.14% recognizing NS2A 36 to 9.8% of CD8^+ T cells recognizing NS4B 99.
Splenocytes were harvested from naïve C57BL/6 mice or mice 7 days after infection with 10^11 GE of S221. The percent of CD8^+ T cells expressing CD44 and CD62L was determined in four independent studies (FIG. 3A). On day 7 after infection, splenocytes were stimulated with the eight major DENV2 peptides (individually; at 0.1 μg/ml) in the presence of brefeldin A, and stained for surface CD8 and intracellular IFN-γ. The percent of CD8^+ T cells producing IFN-γ in response to the irrelevant control peptide was subtracted from the response to each DENV2 peptide to determine the net response. The net responses to the eight major DENV2 peptides were added to determine the percent of DENV2-specific CD44^hi, CD62^lo, and CD44^hiCD62L^lo CD8^+ T cells (FIG. 3B). The data are expressed as the mean percent±SEM of 11-14 mice tested in at least four independent experiments.

YSQVNPITL [NS4B99-107]
% of splenic CD8^+ T cells recognizing the peptide (CD8^+ T cells [1]): 16.5%
number of CD8^+ T cells producing IFN-γ (average) (CD8^+ T cells [1]; spleen): 1.1×10^7 CD8^+ T cells
IFN-γ ELISPOT response (net SFC per 10^6 CD8^+ T cells), in words (CD8^+ T cells [2]): highest responses
percent of CD8^+ T cells producing IFN-γ / recognizing the peptide (CD8^+ T cells [3]; wild-type C57BL/6, day 7 after 10^11 GE S221, peptide 0.1 μg/ml, 5 h): 9.8%
share of the DENV2-specific response (CD8^+ T cells [3]; wild-type C57BL/6 mice): 30%
% of splenic CD8^+ T cells (corresponding to average number) (CD8^+ T cells [3]; wild-type mice, day 7 after 10^11 GE S221): 5.9%
number of CD8^+ T cells producing IFN-γ (average) (CD8^+ T cells [3]; wild-type mice, spleen, day 7 after 10^11 GE S221): 6.3×10^5 CD8^+ T cells
